Reference: ChEMBL document CHEMBL4325853, “Design, synthesis and antibacterial evaluation of 2,4-disubstituted-6-thiophenyl-pyrimidines” (Eur J Med Chem, 2019)
≈ marks a conversion by molar mass, not a printed value.

Key:
Assay type in all cases: functional
Staphylococcus aureus [1] = test: Potency index, ratio of methicillin MIC to test compound MIC for methicillin-resistant Staphylococcus aureus ATCC 33591
Staphylococcus aureus [2] = test: Antibacterial activity against methicillin-resistant Staphylococcus aureus isolate 7947 after 18 hrs by broth microdilution method; conditions: isolate 7947, 18 h
Staphylococcus aureus [3] = test: Antibacterial activity against methicillin-resistant Staphylococcus aureus isolate 8162 after 18 hrs by broth microdilution method; conditions: isolate 8162, 18 h
Staphylococcus aureus [4] = test: Antibacterial activity against methicillin-resistant Staphylococcus aureus ATCC 43300 after 18 hrs by broth microdilution method; conditions: ATCC 43300, 18 h
Staphylococcus aureus [5] = test: Antibacterial activity against methicillin-resistant Staphylococcus aureus isolate 1947 after 18 hrs by broth microdilution method; conditions: isolate 1947, 18 h
Staphylococcus aureus [6] = test: Antibacterial activity against methicillin-resistant Staphylococcus aureus isolate 7844 after 18 hrs by broth microdilution method; conditions: isolate 7844, 18 h
Staphylococcus aureus [7] = test: Bactericidal activity against methicillin-resistant Staphylococcus aureus ATCC BAA41 after 18 hrs by broth microdilution method; conditions: ATCC BAA41, 18 h
Staphylococcus aureus [8] = test: Antibacterial activity against Staphylococcus aureus ATCC 29213 after 18 hrs by broth microdilution method; conditions: ATCC 29213, 18 h
[9] = test system: Staphylococcus epidermidis; test: Potency index, ratio of berberine MIC to test compound MIC for Staphylococcus epidermidis ATCC 12228
Staphylococcus aureus [10] = test: Antibacterial activity against methicillin-resistant Staphylococcus aureus isolate 3170 after 18 hrs by broth microdilution method; conditions: isolate 3170, 18 h
Staphylococcus aureus [11] = test: Antibacterial activity against methicillin-resistant Staphylococcus aureus isolate 5035 after 18 hrs by broth microdilution method; conditions: isolate 5035, 18 h
Staphylococcus aureus [12] = test: Potency index, ratio of methicillin MIC to test compound MIC for methicillin-resistant Staphylococcus aureus ATCC 43300
Staphylococcus aureus [13] = test: Antibacterial activity against methicillin-resistant Staphylococcus aureus isolate 8078 after 18 hrs by broth microdilution method; conditions: isolate 8078, 18 h
Staphylococcus aureus [14] = test: Antibacterial activity against methicillin-resistant Staphylococcus aureus isolate 5426 after 18 hrs by broth microdilution method; conditions: isolate 5426, 18 h
Staphylococcus aureus [15] = test: Antibacterial activity against methicillin-resistant Staphylococcus aureus isolate 4023 after 18 hrs by broth microdilution method; conditions: isolate 4023, 18 h
Staphylococcus aureus [16] = test: Potency index, ratio of berberine MIC to test compound MIC for Staphylococcus aureus ATCC 29213
Staphylococcus aureus [17] = test: Antibacterial activity against methicillin-resistant Staphylococcus aureus isolate 3123 after 18 hrs by broth microdilution method; conditions: isolate 3123, 18 h
Staphylococcus aureus [18] = test: Antibacterial activity against methicillin-resistant Staphylococcus aureus isolate 7960 after 18 hrs by broth microdilution method; conditions: isolate 7960, 18 h
Staphylococcus aureus [19] = test: Antibacterial activity against methicillin-resistant Staphylococcus aureus isolate 7664 after 18 hrs by broth microdilution method; conditions: isolate 7664, 18 h
Staphylococcus aureus [20] = test: Antibacterial activity against methicillin-resistant Staphylococcus aureus isolate 5395 after 18 hrs by broth microdilution method; conditions: isolate 5395, 18 h
Staphylococcus aureus [21] = test: Antibacterial activity against methicillin-resistant Staphylococcus aureus isolate 7943 after 18 hrs by broth microdilution method; conditions: isolate 7943, 18 h
Staphylococcus aureus [22] = test: Antibacterial activity against methicillin-resistant Staphylococcus aureus isolate 7587 after 18 hrs by broth microdilution method; conditions: isolate 7587, 18 h
Staphylococcus aureus [23] = test: Antibacterial activity against methicillin-resistant Staphylococcus aureus isolate 5056 after 18 hrs by broth microdilution method; conditions: isolate 5056, 18 h
Staphylococcus aureus [24] = test: Potency index, ratio of methicillin MIC to test compound MIC for methicillin-resistant Staphylococcus aureus ATCC 33592
Staphylococcus aureus [25] = test: Antibacterial activity against methicillin-resistant Staphylococcus aureus isolate 8179 after 18 hrs by broth microdilution method; conditions: isolate 8179, 18 h
Staphylococcus aureus [26] = test: Antibacterial activity against methicillin-resistant Staphylococcus aureus isolate 7183 after 18 hrs by broth microdilution method; conditions: isolate 7183, 18 h
Staphylococcus aureus [27] = test: Antibacterial activity against methicillin-resistant Staphylococcus aureus isolate 7917 after 18 hrs by broth microdilution method; conditions: isolate 7917, 18 h
Staphylococcus aureus [28] = test: Antibacterial activity against methicillin-resistant Staphylococcus aureus isolate 6334 after 18 hrs by broth microdilution method; conditions: isolate 6334, 18 h
Staphylococcus aureus [29] = test: Antibacterial activity against methicillin-resistant Staphylococcus aureus isolate 1428 after 18 hrs by broth microdilution method; conditions: isolate 1428, 18 h
Enterococcus faecalis [30] = test: Potency index, ratio of berberine MIC to test compound MIC for Enterococcus faecalis ATCC 29212
Enterococcus faecalis [31] = test: Ratio of MBC to MIC for vancomycin-resistant Enterococcus faecalis ATCC 700221
Staphylococcus aureus [32] = test: Antibacterial activity against methicillin-resistant Staphylococcus aureus isolate 3096 after 18 hrs by broth microdilution method; conditions: isolate 3096, 18 h
Staphylococcus aureus [33] = test: Antibacterial activity against methicillin-resistant Staphylococcus aureus isolate 7864 after 18 hrs by broth microdilution method; conditions: isolate 7864, 18 h
Enterococcus faecium = test: Antibacterial activity against Enterococcus faecium ATCC 49624 after 18 hrs by broth microdilution method; conditions: ATCC 49624, 18 h
Staphylococcus aureus [34] = test: Antibacterial activity against methicillin-resistant Staphylococcus aureus isolate 7717 after 18 hrs by broth microdilution method; conditions: isolate 7717, 18 h
Enterococcus faecalis [35] = test: Antibacterial activity against vancomycin-resistant Enterococcus faecalis ATCC 51575 after 18 hrs by broth microdilution method; conditions: ATCC 51575, 18 h
[36] = test system: Staphylococcus epidermidis; test: Antibacterial activity against Staphylococcus epidermidis ATCC 12228 after 18 hrs by broth microdilution method; conditions: ATCC 12228, 18 h
Staphylococcus aureus [37] = test: Antibacterial activity against methicillin-resistant Staphylococcus aureus isolate 7916 after 18 hrs by broth microdilution method; conditions: isolate 7916, 18 h
Staphylococcus aureus [38] = test: Antibacterial activity against methicillin-resistant Staphylococcus aureus isolate 1651 after 18 hrs by broth microdilution method; conditions: isolate 1651, 18 h
Staphylococcus aureus [39] = test: Antibacterial activity against methicillin-resistant Staphylococcus aureus ATCC BAA1720 after 18 hrs by broth microdilution method; conditions: ATCC BAA1720, 18 h
Staphylococcus aureus [40] = test: Antibacterial activity against methicillin-resistant Staphylococcus aureus isolate 4127 after 18 hrs by broth microdilution method; conditions: isolate 4127, 18 h
Staphylococcus aureus [41] = test: Antibacterial activity against methicillin-resistant Staphylococcus aureus isolate 7863 after 18 hrs by broth microdilution method; conditions: isolate 7863, 18 h
Staphylococcus aureus [42] = test: Antibacterial activity against methicillin-resistant Staphylococcus aureus isolate 4548 after 18 hrs by broth microdilution method; conditions: isolate 4548, 18 h
Staphylococcus aureus [43] = test: Antibacterial activity against methicillin-resistant Staphylococcus aureus ATCC 33592 after 18 hrs by broth microdilution method; conditions: ATCC 33592, 18 h
Staphylococcus aureus [44] = test: Antibacterial activity against methicillin-resistant Staphylococcus aureus isolate 1708 after 18 hrs by broth microdilution method; conditions: isolate 1708, 18 h
Staphylococcus aureus [45] = test: Antibacterial activity against methicillin-resistant Staphylococcus aureus isolate 7247 after 18 hrs by broth microdilution method; conditions: isolate 7247, 18 h
Staphylococcus aureus [46] = test: Antibacterial activity against methicillin-resistant Staphylococcus aureus isolate 2671 after 18 hrs by broth microdilution method; conditions: isolate 2671, 18 h

CC(C)(C)c1ccc(CN2CCCN(CCc3cc(-c4cccs4)nc(-c4ccncc4)n3)CC2)cc1
Ratio (Staphylococcus aureus [1]): >100
MIC90 (Staphylococcus aureus [2]): 2 µg/mL (≈ 3.91 µM)
MIC90 (Staphylococcus aureus [3]): 2 µg/mL (≈ 3.91 µM)
MIC90 (Staphylococcus aureus [4]): 2 µg/mL (≈ 3.91 µM)
MIC90 (Staphylococcus aureus [5]): 2 µg/mL (≈ 3.91 µM)
MIC90 (Staphylococcus aureus [6]): 2 µg/mL (≈ 3.91 µM)
MBC (Staphylococcus aureus [7]): 2 µg/mL (≈ 3.91 µM)
MIC90 (Staphylococcus aureus [8]): 2 µg/mL (≈ 3.91 µM)
Ratio [9]: 50 - 100
MIC90 (Staphylococcus aureus [10]): 2 µg/mL (≈ 3.91 µM)
MIC90 (Staphylococcus aureus [11]): 2 µg/mL (≈ 3.91 µM)
Ratio (Staphylococcus aureus [12]): >100
MIC90 (Staphylococcus aureus [13]): 2 µg/mL (≈ 3.91 µM)
MIC90 (Staphylococcus aureus [14]): 2 µg/mL (≈ 3.91 µM)
MIC90 (Staphylococcus aureus [15]): 2 µg/mL (≈ 3.91 µM)
Ratio (Staphylococcus aureus [16]): 50 - 100
MIC90 (Staphylococcus aureus [17]): 2 µg/mL (≈ 3.91 µM)
MIC90 (Staphylococcus aureus [18]): 2 µg/mL (≈ 3.91 µM)
MIC90 (Staphylococcus aureus [19]): 2 µg/mL (≈ 3.91 µM)
MIC90 (Staphylococcus aureus [20]): 2 µg/mL (≈ 3.91 µM)
MIC90 (Staphylococcus aureus [21]): 2 µg/mL (≈ 3.91 µM)
MIC90 (Staphylococcus aureus [22]): 2 µg/mL (≈ 3.91 µM)
MIC90 (Staphylococcus aureus [23]): 2 µg/mL (≈ 3.91 µM)
Ratio (Staphylococcus aureus [24]): >100
MIC90 (Staphylococcus aureus [25]): 2 µg/mL (≈ 3.91 µM)
MIC90 (Staphylococcus aureus [26]): 2 µg/mL (≈ 3.91 µM)
MIC90 (Staphylococcus aureus [27]): 2 µg/mL (≈ 3.91 µM)
MIC90 (Staphylococcus aureus [28]): 2 µg/mL (≈ 3.91 µM)
MIC90 (Staphylococcus aureus [29]): 2 µg/mL (≈ 3.91 µM)
Ratio (Enterococcus faecalis [30]): 50 - 100
Ratio (Enterococcus faecalis [31]): 1
MIC90 (Staphylococcus aureus [32]): 2 µg/mL (≈ 3.91 µM)
MIC90 (Staphylococcus aureus [33]): 2 µg/mL (≈ 3.91 µM)
MIC90 (Enterococcus faecium): 4 µg/mL (≈ 7.82 µM)
MIC90 (Staphylococcus aureus [34]): 2 µg/mL (≈ 3.91 µM)
MIC90 (Enterococcus faecalis [35]): 4 µg/mL (≈ 7.82 µM)
MIC90 [36]: 2 µg/mL (≈ 3.91 µM)
MIC90 (Staphylococcus aureus [37]): 2 µg/mL (≈ 3.91 µM)
MIC90 (Staphylococcus aureus [38]): 2 µg/mL (≈ 3.91 µM)
MIC90 (Staphylococcus aureus [39]): 2 µg/mL (≈ 3.91 µM)
MIC90 (Staphylococcus aureus [40]): 2 µg/mL (≈ 3.91 µM)
MIC90 (Staphylococcus aureus [41]): 2 µg/mL (≈ 3.91 µM)
MIC90 (Staphylococcus aureus [42]): 2 µg/mL (≈ 3.91 µM)
MIC90 (Staphylococcus aureus [43]): 2 µg/mL (≈ 3.91 µM)
MIC90 (Staphylococcus aureus [44]): 4 µg/mL (≈ 7.82 µM)
MIC90 (Staphylococcus aureus [45]): 2 µg/mL (≈ 3.91 µM)
MIC90 (Staphylococcus aureus [46]): 2 µg/mL (≈ 3.91 µM)

CC(C)c1ccc(CN2CCCN(CCc3cc(-c4cccs4)nc(-c4ccncc4)n3)CC2)cc1
Ratio (Staphylococcus aureus [1]): >100
MIC90 (Staphylococcus aureus [2]): 2 µg/mL (≈ 4.02 µM)
MIC90 (Staphylococcus aureus [3]): 2 µg/mL (≈ 4.02 µM)
MIC90 (Staphylococcus aureus [4]): 2 µg/mL (≈ 4.02 µM)
MIC90 (Staphylococcus aureus [5]): 2 µg/mL (≈ 4.02 µM)
MIC90 (Staphylococcus aureus [6]): 2 µg/mL (≈ 4.02 µM)
MBC (Staphylococcus aureus [7]): 2 µg/mL (≈ 4.02 µM)
MIC90 (Staphylococcus aureus [8]): 2 µg/mL (≈ 4.02 µM)
Ratio [9]: 50 - 100
MIC90 (Staphylococcus aureus [10]): 2 µg/mL (≈ 4.02 µM)
MIC90 (Staphylococcus aureus [11]): 2 µg/mL (≈ 4.02 µM)
Ratio (Staphylococcus aureus [12]): >100
MIC90 (Staphylococcus aureus [13]): 2 µg/mL (≈ 4.02 µM)
MIC90 (Staphylococcus aureus [14]): 2 µg/mL (≈ 4.02 µM)
MIC90 (Staphylococcus aureus [15]): 2 µg/mL (≈ 4.02 µM)
Ratio (Staphylococcus aureus [16]): 50 - 100
MIC90 (Staphylococcus aureus [17]): 2 µg/mL (≈ 4.02 µM)
MIC90 (Staphylococcus aureus [18]): 2 µg/mL (≈ 4.02 µM)
MIC90 (Staphylococcus aureus [19]): 2 µg/mL (≈ 4.02 µM)
MIC90 (Staphylococcus aureus [20]): 2 µg/mL (≈ 4.02 µM)
MIC90 (Staphylococcus aureus [21]): 2 µg/mL (≈ 4.02 µM)
MIC90 (Staphylococcus aureus [22]): 2 µg/mL (≈ 4.02 µM)
MIC90 (Staphylococcus aureus [23]): 2 µg/mL (≈ 4.02 µM)
Ratio (Staphylococcus aureus [24]): >100
MIC90 (Staphylococcus aureus [25]): 2 µg/mL (≈ 4.02 µM)
MIC90 (Staphylococcus aureus [26]): 2 µg/mL (≈ 4.02 µM)
MIC90 (Staphylococcus aureus [27]): 2 µg/mL (≈ 4.02 µM)
MIC90 (Staphylococcus aureus [28]): 2 µg/mL (≈ 4.02 µM)
MIC90 (Staphylococcus aureus [29]): 2 µg/mL (≈ 4.02 µM)
Ratio (Enterococcus faecalis [30]): 50 - 100
Ratio (Enterococcus faecalis [31]): 2
MIC90 (Staphylococcus aureus [32]): 2 µg/mL (≈ 4.02 µM)
MIC90 (Staphylococcus aureus [33]): 2 µg/mL (≈ 4.02 µM)
MIC90 (Enterococcus faecium): 2 µg/mL (≈ 4.02 µM)
MIC90 (Staphylococcus aureus [34]): 2 µg/mL (≈ 4.02 µM)
MIC90 (Enterococcus faecalis [35]): 2 µg/mL (≈ 4.02 µM)
MIC90 [36]: 2 µg/mL (≈ 4.02 µM)
MIC90 (Staphylococcus aureus [37]): 2 µg/mL (≈ 4.02 µM)
MIC90 (Staphylococcus aureus [38]): 2 µg/mL (≈ 4.02 µM)
MIC90 (Staphylococcus aureus [39]): 2 µg/mL (≈ 4.02 µM)
MIC90 (Staphylococcus aureus [40]): 2 µg/mL (≈ 4.02 µM)
MIC90 (Staphylococcus aureus [41]): 2 µg/mL (≈ 4.02 µM)
MIC90 (Staphylococcus aureus [42]): 2 µg/mL (≈ 4.02 µM)
MIC90 (Staphylococcus aureus [43]): 2 µg/mL (≈ 4.02 µM)
MIC90 (Staphylococcus aureus [44]): 2 µg/mL (≈ 4.02 µM)
MIC90 (Staphylococcus aureus [45]): 2 µg/mL (≈ 4.02 µM)
MIC90 (Staphylococcus aureus [46]): 2 µg/mL (≈ 4.02 µM)
